Results taken from PMC10013830 (Molecular Plant Pathology, 2023).
Entries after “also recorded” stand apart in the source; their conditions may differ.

What was measured:
[1] = tested on: XccR binding to the luxXc box; assay: EMSA: effect of sugars on binding of XccR to the luxXc box; settings: XccR-MBP, increasing sugar concentrations (glucose 0.005-5 μM)
[2] = tested on: pip promoter (Xcc 8008, pip-GUS reporter); format: cell-based, Xanthomonas campestris pv. campestris
TraR = target: T1, TraR (Agrobacterium tumefaciens, UniProt P33905); assay: MST TraR–glucose interaction; format: binding; settings: Figure S7c
T1 sequence (P33905 1-234): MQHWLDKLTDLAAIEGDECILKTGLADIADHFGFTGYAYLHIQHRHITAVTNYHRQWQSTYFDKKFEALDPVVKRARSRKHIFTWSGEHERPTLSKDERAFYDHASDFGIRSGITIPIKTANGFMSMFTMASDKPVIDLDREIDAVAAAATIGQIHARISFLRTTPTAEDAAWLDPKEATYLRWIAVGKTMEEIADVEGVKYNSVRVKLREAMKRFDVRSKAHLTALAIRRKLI

XccR-MBP [3] = target: T2, XccR-MBP (Xanthomonas campestris pv. campestris, UniProt B0RQF7); assay: Isothermal titration calorimetry of XccR-MBP with glucose; format: binding; settings: XccR-MBP 10 μM titrated with 100 μM glucose
T2 sequence (B0RQF7 1-272): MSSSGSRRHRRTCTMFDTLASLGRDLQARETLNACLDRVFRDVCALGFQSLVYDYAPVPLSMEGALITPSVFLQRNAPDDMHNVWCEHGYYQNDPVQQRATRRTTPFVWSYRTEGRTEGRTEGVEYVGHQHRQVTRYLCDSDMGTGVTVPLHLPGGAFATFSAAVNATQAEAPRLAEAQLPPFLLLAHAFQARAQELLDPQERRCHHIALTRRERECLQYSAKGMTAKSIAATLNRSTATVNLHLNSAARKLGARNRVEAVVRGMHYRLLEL

[4] = tested on: pip promoter (Xcc 8008 reporter strain); format: in vivo, Xanthomonas campestris pv. campestris in Arabidopsis; settings: Atsweet2‐3‐2 and Atsweet15‐4‐7 mutant plants, bacterial suspension supplemented with glucose before infection
XccR-MBP [5] = target: T2, XccR-MBP; assay: Microscale thermophoresis
LasR = target: T3, LasR (Pseudomonas aeruginosa, UniProt P25084); assay: MST LasR–glucose interaction; format: binding; settings: Figure S7d
T3 sequence (P25084 1-239): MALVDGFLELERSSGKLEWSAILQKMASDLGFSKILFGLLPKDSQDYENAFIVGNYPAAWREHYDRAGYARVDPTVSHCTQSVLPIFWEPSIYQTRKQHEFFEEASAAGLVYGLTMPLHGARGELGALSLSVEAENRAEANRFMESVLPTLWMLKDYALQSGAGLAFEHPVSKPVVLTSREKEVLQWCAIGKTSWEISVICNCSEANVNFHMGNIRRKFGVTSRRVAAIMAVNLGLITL

XccR-SUMO = target: T4, XccR-SUMO (Xanthomonas campestris pv. campestris, UniProt B0RQF7); assay: MST binding of glucose to XccR-SUMO
T4 sequence (B0RQF7 1-272): T2 sequence (B0RQF7 1-272)

**Q.** How did the “Effect on binding of XccR to the luxXc box” value (“Effect on binding of XccR” for short) [1] turn out when `O=CC[C@@H](O)[C@H](O)[C@H](O)CO` [2‐deoxyglucose, 2‐deoxy‐D‐glucose, reference compound] was run?
**A.** The value was “enhanced”.

**Q.** What about the “GUS activity driven by the pip promoter” value [2] of the same compound?
**A.** Its value is “promoted”.

**Q.** How did the “Effect on binding of XccR” value [1] turn out when `O=C(CO)[C@@H](O)[C@H](O)[C@H](O)CO` [fructose] was run?
**A.** The value was “did not enhance”.

**Q.** `O=C[C@H](O)[C@@H](O)[C@H](O)[C@H](O)COP(=O)(O)O` [glucose 6‐phosphate, D‐glucose 6‐phosphate] was tested. Which “Effect on binding of XccR” value [1] did it give?
**A.** The value was “did not enhance”.

**Q.** Which “Effect on binding of XccR” value [1] does the source give for `OC[C@H]1O[C@@](CO)(O[C@H]2O[C@H](CO)[C@@H](O)[C@H](O)[C@H]2O)[C@@H](O)[C@@H]1O` [sucrose] here?
**A.** Its value is “did not enhance”.

**Q.** With `OC[C@H]1OC(O)[C@H](O)[C@@H](O)[C@@H]1O` (stereo partly shown) [glucose, D‐glucose] as the compound, how does the “TraR–glucose interaction” value (TraR) read?
**A.** The value was “did not interact”.

**Q.** What about the “Effect on binding of XccR” value [1] of the same compound?
**A.** The value was “enhanced”.

**Q.** What about the “Binding of XccR with glucose by ITC” value (XccR-MBP [3]) of the same compound?
**A.** The value was “supported by the ITC results”.

**Q.** And the “GUS activity driven by the pip promoter” value [2]?
**A.** Its value is “increase; also recorded: promoted”.

**Q.** What about the “pip promoter-driven GUS activity in planta” value [4] of the same compound?
**A.** Its value is “restored to the wild‐type level”.

**Q.** What about the Kd (XccR-MBP [5]) of the same compound?
**A.** Its Kd is 252 nM.

**Q.** What about the “LasR–glucose binding” value (LasR) of the same compound?
**A.** Its value is “did not bind”.

**Q.** What about the Kd (XccR-SUMO) of the same compound?
**A.** The Kd was 242 nM.
